We go through 34 substances from US10130693B2, “Peptides, combination of peptides and scaffolds for use in immunotherapeutic treatment of various cancers” (Immatics Biotechnologies GmbH, priority 2015, dated 2018).

In one test the test system is HLA-A*24. Kind of test: MHC binding assay, UV-ligand exchange with beta2m ELISA (exchange yield), HLA-A*24. Also noted: species or system human. To be noted: binding to HLA-A*24, UV-ligand exchange. A digest of the protocol:
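Peptide–MHC complexes formed by UV-ligand exchange: a UV-cleavable peptide is replaced by the test peptide, and only binders keep the complex stable. Exchange yield read by streptavidin-capture ELISA on reactions diluted 100-fold, detected with HRP anti-β2m (2 ug/ml, 1 h, 37° C) and TMB at 450 nm.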
In general terms: An ELISA detects its analyte on a solid surface through an enzyme-linked reagent.

The next test has as its system CD8+ T cells. Kind of test: In vitro immunogenicity: T-cell priming with aAPCs loaded with HLA-A*24 peptide/MHC and anti-CD28, multimer staining. Format: cell-based, human. To be noted: HLA-A*24 peptides. How it is done:
CD8+ T cells were primed using artificial APCs coated with anti-CD28 mAb and HLA-A*24 in complex with SEQ ID NO: 99 peptide (FIG. 5A, left panel), SEQ ID NO: 119 peptide (FIG. 5B, left panel), SEQ ID NO: 142 peptide (FIG. 5C, left panel) and SEQ ID NO: 174 peptide FIG. 5 (D, left panel), respectively. After three cycles of stimulation, the detection of peptide-reactive cells was performed by 2D multimer staining with A*24/SEQ ID NO: 99 (FIG. 5A), A*24/SEQ ID NO: 119 (FIG. 5B), A*24/SEQ ID NO: 142 (FIG. 5C) or A*24/SEQ ID NO: 174 (FIG. 5D). Right panels (FIGS. 5A,5B,5C and 5D) show control staining of cells stimulated with irrelevant A*24/peptide complexes. Viable singlet cells were gated for CD8+ lymphocytes. Boolean gates helped excluding false-positive events detected with multimers specific for different peptides. Frequencies of specific multimer+ cells among CD8+ lymphocytes are indicated.
Generation of pMHC/anti-CD28 coated beads, T-cell stimulations and readout was performed in a highly defined in vitro system using four different pMHC molecules per stimulation condition and 8 different pMHC molecules per readout condition.
The purified co-stimulatory mouse IgG2a anti human CD28 Ab 9.3 (Jung et al., 1987) was chemically biotinylated using Sulfo-N-hydroxysuccinimidobiotin as recommended by the manufacturer (Perbio, Bonn, Germany). Beads used were 5.6 μm diameter streptavidin coated polystyrene particles (Bangs Laboratories, Illinois, USA).
800.000 beads/200 μl were coated in 96-well plates in the presence of 4×12.5 ng different biotin-pMHC, washed and 600 ng biotin anti-CD28 were added subsequently in a volume of 200 μl. Stimulations were initiated in 96-well plates by co-incubating 1×10^6 CD8+ T cells with 2×10^5 washed coated beads in 200 μl TCM supplemented with 5 ng/ml IL-12 (PromoCell) for 3 days at 37° C. Half of the medium was then exchanged by fresh TCM supplemented with 80 U/ml IL-2 and incubating was continued for 4 days at 37° C. This stimulation cycle was performed for a total of three times. For the pMHC multimer readout using 8 different pMHC molecules per condition, a two-dimensional combinatorial coding approach was used as previously described (Andersen et al., 2012) with minor modifications encompassing coupling to 5 different fluorochromes. Finally, multimeric analyses were performed by staining the cells with Live/dead near IR dye (Invitrogen, Karlsruhe, Germany), CD8-FITC antibody clone SK1 (BD, Heidelberg, Germany) and fluorescent pMHC multimers. For analysis, a BD LSRII SORP cytometer equipped with appropriate lasers and filters was used. Peptide specific cells were calculated as percentage of total CD8+ cells. Evaluation of multimeric analysis was done using the FlowJo software (Tree Star, Oregon, USA). In vitro priming of specific multimer+CD8+ lymphocytes was detected by comparing to negative control stimulations.

As to “115 (RYLNKSFVL; listed as Homo sapiens) [compound 115]”, the “Peptide exchange (MHC class I binding score, peptide exchange yield)” value (“Peptide exchange” below) with HLA-A*24 is “+++ (50%-75% = +++)”. Also, the “in vitro immunogenicity, Wells positive [%]” value (“in vitro immunogenicity … [%]” below) with CD8+ T cells is “+ (<20% = +)”.
With “119 (VYRVYVTTF; listed as Homo sapiens) [compound 119]”, the “Peptide exchange” value with HLA-A*24 is recorded as “+++ (50%-75% = +++)”. In addition, the “in vitro immunogenicity … [%]” value in the test with CD8+ T cells was “+++ (50%-69% = +++)”.
On the same counts, the results for “120 (GYIEHFSLW; listed as Homo sapiens) [compound 120]” are “++++ (>=75% = ++++)” and “++ (20%-49% = ++)”.
On to “122 (EYQARIPEF; listed as Homo sapiens) [compound 122]”, for which the “Peptide exchange” value in the test with HLA-A*24 is recorded as “+++ (50%-75% = +++)”. Besides, the “in vitro immunogenicity … [%]” value in the test with CD8+ T cells is “++ (20%-49% = ++)”.
On the same counts, the results for “132 (RYPALFPVL; listed as Homo sapiens) [compound 132]” are “++++ (>=75% = ++++)” and “+ (<20% = +)”.
Consider “137 (EYLHNCSYF; listed as Homo sapiens) [compound 137]”, for which the “Peptide exchange” value in the test with HLA-A*24 is listed as “++++ (>=75% = ++++)”. Further, the “in vitro immunogenicity … [%]” value with CD8+ T cells is given as “+ (<20% = +)”.
With “139 (IFGIFPNQF; listed as Homo sapiens) [compound 139]”, in the test on HLA-A*24, the “Peptide exchange” value is “+++ (50%-75% = +++)”. The “in vitro immunogenicity … [%]” value in the test with CD8+ T cells is on record as “++ (20%-49% = ++)”.
On the same counts, the results for “140 (RYLINSYDF; listed as Homo sapiens) [compound 140]” are “++++ (>=75% = ++++)” and “+++ (50%-69% = +++)”.
On the same counts, the results for “142 (VYVDDIYVI; listed as Homo sapiens) [compound 142]” are “+++ (50%-75% = +++)” and “++++ (>=70% = ++++)”.
On the same counts, the results for “144 (VFASLPGFLF; listed as Homo sapiens) [compound 144]” are “++++ (>=75% = ++++)” and “++ (20%-49% = ++)”.
Take “155 (IYKWITDNF; listed as Homo sapiens) [compound 155]”: the “Peptide exchange” value with HLA-A*24 is given as “++++ (>=75% = ++++)”. Besides, the “in vitro immunogenicity … [%]” value in the test on CD8+ T cells was “++ (20%-49% = ++)”.
On the same counts, the results for “156 (YYMELTKLLL; listed as Homo sapiens) [compound 156]” are “++++ (>=75% = ++++)” and “+ (<20% = +)”.
On the same counts, the results for “157 (DYIPASGFALF; listed as Homo sapiens) [compound 157]” are “+++ (50%-75% = +++)” and “+ (<20% = +)”.
On the same counts, the results for “158 (IYEETRGVLKVF; listed as Homo sapiens) [compound 158]” are “+++ (50%-75% = +++)” and “+ (<20% = +)”.
Consider “160 (RYGDGGSSF; listed as Homo sapiens) [compound 160]”, for which the “Peptide exchange” value in the test on HLA-A*24 was “+++ (50%-75% = +++)”. The “in vitro immunogenicity … [%]” value in the test with CD8+ T cells is “+ (<20% = +)”.
For “161 (KYPDIVQQF; listed as Homo sapiens) [compound 161]”, the “Peptide exchange” value with HLA-A*24 was “+++ (50%-75% = +++)”. Also, the “in vitro immunogenicity … [%]” value in the test on CD8+ T cells is on record as “+ (<20% = +)”.
On the same counts, the results for “162 (KYTSYILAF; listed as Homo sapiens) [compound 162]” are “++ (20%-49% = ++)” and “+ (<20% = +)”.
Regarding “163 (RYLTISNLQF; listed as Homo sapiens) [compound 163]”, the “Peptide exchange” value with HLA-A*24 is on record as “++++ (>=75% = ++++)”. In the test with CD8+ T cells, the “in vitro immunogenicity … [%]” value is “+ (<20% = +)”.
Take “164 (HYVPATKVF; listed as Homo sapiens) [compound 164]”: the “Peptide exchange” value in the test with HLA-A*24 was “+++ (50%-75% = +++)”. Moreover, in the test on CD8+ T cells, the “in vitro immunogenicity … [%]” value is “+ (<20% = +)”.
On the same counts, the results for “166 (FYTLPFHLI; listed as Homo sapiens) [compound 166]” are “++++ (>=75% = ++++)” and “++++ (>=70% = ++++)”.
On the same counts, the results for “167 (RYGFYYVEF; listed as Homo sapiens) [compound 167]” are “+++ (50%-75% = +++)” and “++++ (>=70% = ++++)”.
On the same counts, the results for “168 (RYLEAALRL; listed as Homo sapiens) [compound 168]” are “+++ (50%-75% = +++)” and “+++ (50%-69% = +++)”.
As to “170 (QYPFHVPLL; listed as Homo sapiens) [compound 170]”, the “Peptide exchange” value in the test on HLA-A*24 is “++++ (>=75% = ++++)”. In addition, the “in vitro immunogenicity … [%]” value in the test with CD8+ T cells is “+++ (50%-69% = +++)”.
On the same counts, the results for “171 (NYEDHFPLL; listed as Homo sapiens) [compound 171]” are “+++ (50%-75% = +++)” and “++ (20%-49% = ++)”.
On the same counts, the results for “172 (VFIFKGNEF; listed as Homo sapiens) [compound 172]” are “++++ (>=75% = ++++)” and “+ (<20% = +)”.
On the same counts, the results for “174 (VYEKNGYIYF; listed as Homo sapiens) [compound 174]” are “+++ (50%-75% = +++)” and “++++ (>=70% = ++++)”.
Consider “175 (LYSPVPFTL; listed as Homo sapiens) [compound 175]”, for which the “Peptide exchange” value in the test with HLA-A*24 is given as “+++ (50%-75% = +++)”. In addition, in the test with CD8+ T cells, the “in vitro immunogenicity … [%]” value is recorded as “+ (<20% = +)”.
Consider “177 (VYFKAGLDVF; listed as Homo sapiens) [compound 177]”, for which the “Peptide exchange” value in the test with HLA-A*24 is “+++ (50%-75% = +++)”. The “in vitro immunogenicity … [%]” value with CD8+ T cells is given as “+ (<20% = +)”.
On the same counts, the results for “179 (TYIPVGLGRLL; listed as Homo sapiens) [compound 179]” are “+++ (50%-75% = +++)” and “+++ (50%-69% = +++)”.
Regarding “180 (KYLQVVGMF; listed as Homo sapiens) [compound 180]”, the “Peptide exchange” value with HLA-A*24 was “+++ (50%-75% = +++)”. Further, the “in vitro immunogenicity … [%]” value in the test with CD8+ T cells is recorded as “+ (<20% = +)”.
On the same counts, the results for “181 (VYPPYLNYL; listed as Homo sapiens) [compound 181]” are “+++ (50%-75% = +++)” and “++++ (>=70% = ++++)”.
On to “182 (AYAQLGYLLF; listed as Homo sapiens) [compound 182]”, for which the “Peptide exchange” value in the test with HLA-A*24 is given as “++++ (>=75% = ++++)”. The “in vitro immunogenicity … [%]” value with CD8+ T cells was “+++ (50%-69% = +++)”.
On the same counts, the results for “186 (VFTTSSNIF; listed as Homo sapiens) [compound 186]” are “++++ (>=75% = ++++)” and “+ (<20% = +)”.
On the same counts, the results for “190 (LYSELTETL; listed as Homo sapiens) [compound 190]” are “+++ (50%-75% = +++)” and “++++ (>=70% = ++++)”.
